Columns and labels:
[1] = target: T1, recombinant human 17β-HSD1 (Homo sapiens, UniProt P14061); assay: Inhibition of recombinant human 17β-HSD1 (conversion of 3H-estrone to estradiol, HPLC); assay type: biochemical; settings: inhibitor 1 μM; 30 nM estrone, 1 mM NADPH, 30 min at RT; read-out: 17β-HDS1 Inhibition % at 1 μM
T1 construct: made in house; host or cells: Sd9 (Sf9) insect cells, baculovirus (Bac to Bac Expression System); microsomal fraction
T1 sequence (P14061 1-328): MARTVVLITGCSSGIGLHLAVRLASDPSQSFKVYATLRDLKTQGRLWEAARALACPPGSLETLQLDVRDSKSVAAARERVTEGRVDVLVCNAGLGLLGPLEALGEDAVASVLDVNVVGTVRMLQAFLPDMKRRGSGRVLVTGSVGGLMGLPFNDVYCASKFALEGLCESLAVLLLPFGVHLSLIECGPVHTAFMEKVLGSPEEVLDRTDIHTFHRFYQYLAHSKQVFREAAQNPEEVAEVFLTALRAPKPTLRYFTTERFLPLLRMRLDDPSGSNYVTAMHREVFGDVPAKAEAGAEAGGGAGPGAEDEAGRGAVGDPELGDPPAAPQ
Protocol: 17β-HSD1 production and isolation: Recombinant baculovirus was generated by the “Bac to Bac Expression System” (Invitrogen). Recombinant bacmid was transfected to Sd9 insect cells using “Cellfectin Reagent” (Invitrogen). 60 h later cells were harvested; the microsomal fraction was isolated as described by Puranen, T. J., Poutanen, M. H., Peltoketo, H. E., Vihko, P. T. and Vihko, R. K. (1994) Site-directed mutagenesis of the putative active site of human 17 β-hydroxysteroid dehydrogenase type 1. Biochem. J. 304: 289-293. Aliquots were stored frozen until determination of enzymatic activity.
Assay—Inhibition of recombinant human 17β-HSD1: Recombinant protein (1 μg/ml) was incubated in 20 mM KH2PO4 pH 7.4 with 30 nM estrone (including 800 000 cpm/ml of ^3H-estrone) and 1 mM NADPH for 30 min at RT, in the presence of the potential inhibitor at concentrations 1 μM or 0.1 μM. Inhibitor stock solutions were prepared in DMSO. Final concentration of DMSO was adjusted to 1% in all samples. The enzyme reaction was stopped by addition of 10% trichloroacetic acid (final concentration). Samples were centrifuged in a microtiter plate at 4000 rpm for 10 min. Supernatants were applied to reverse phase HPLC on a Waters Symmetry C18 column, equipped with a Waters Sentry Guard column. Isocratic HPLC runs were performed at RT at a flow rate of 1 ml/min in acetonitrile:water 48:52 as running solvent. Radioactivity was monitored in the eluate by a Packard Flow Scintillation Analyzer. Total radioactivity for estrone and estradiol were determined in each sample and percent conversion of estrone to estradiol was calculated according to the following formula:
(§1) Percent inhibition was calculated flowingly: % inhibition=100−% conversion

[2] = target: T2, recombinant human 17β-HSD2 (Homo sapiens, UniProt P37059); assay: Inhibition of recombinant human 17β-HSD2 (conversion of 3H-estradiol to estrone, HPLC); assay type: biochemical; settings: inhibitor 1 μM; 50 nM estradiol, 1 mM NADH, 30 min at RT
T2 construct: made in house; host or cells: Sd9 (Sf9) insect cells, baculovirus (Bac to Bac Expression System); fractionated cell extract
T2 sequence (P37059 1-387): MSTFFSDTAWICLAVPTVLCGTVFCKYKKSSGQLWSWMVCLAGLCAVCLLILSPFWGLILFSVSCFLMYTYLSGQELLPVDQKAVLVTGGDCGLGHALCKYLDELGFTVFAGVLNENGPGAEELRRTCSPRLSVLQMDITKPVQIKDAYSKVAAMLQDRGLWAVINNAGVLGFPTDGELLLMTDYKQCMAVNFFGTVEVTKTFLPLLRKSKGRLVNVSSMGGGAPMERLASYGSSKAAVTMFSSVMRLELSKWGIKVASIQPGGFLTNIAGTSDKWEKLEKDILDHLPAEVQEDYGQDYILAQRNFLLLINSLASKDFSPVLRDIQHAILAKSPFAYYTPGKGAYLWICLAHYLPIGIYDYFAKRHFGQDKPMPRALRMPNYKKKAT
Protocol: 17β-HSD2 production and isolation: Similarly to 17β-HSD1 the Recombinant baculovirus was generated by the “Bac to Bac Expression System” (Invitrogen). Recombinant bacmid was transfected to Sd9 insect cells using “Cellfectin Reagent” (Invitrogen). 60 h later cells were harvested and supernatant were fractionated by the following protocol: • cells were dissolved into 40 ml of A-buffer (40 mM TRIS, pH8.0, 20% glycerol, 20 μM NAD, 0.4 mM PMSF, 150 mM NaCl, 0.5% dodecyl-β-maltoside+protease inhibitor cocktail) • cells were sonicated • lysate was incubated on ice for 15 min • lysate was centrifuged 5000 rpm 15 min, +4° C. • centrifugation of the supernatant 180 000 g 30 min, +4° C. • pellet was dissolved into 8 ml of A-buffer • not resuspended material was removed by centrifugation 5000 rpm 15 min, +4° C. • the clear supernatant was divided into 100 μl aliquots and were stored frozen until determination of enzymatic activity.
The amount of 17β-HSD2 was analysed by immunoblotting and total protein concentration of each extract batch was determined.
Assay—Inhibition of recombinant human 17β-HSD2: Recombinant protein (4 μg/ml) was incubated in 20 mM KH2PO4 pH 8.5 with 50 nM estradiol (including 800 000 cpm/ml of ^3H-estradiol) and 1 mM NADH for 30 min at RT, in the presence of the potential inhibitor at concentrations 1 μM or 0.1 μM. Inhibitor stock solutions were prepared in DMSO. Final concentration of DMSO was adjusted to 1% in all samples. The enzyme reaction was stopped by addition of 10% trichloroacetic acid (final concentration). Samples were centrifuged in a microtiter plate at 4000 rpm for 10 min. Supernatants were applied to reverse phase HPLC on a Waters Symmetry C18 column, equipped with a Waters Sentry Guard column. Isocratic HPLC runs were performed at RT at a flow rate of 1 ml/min in acetonitrile:water 48:52 as running solvent. Radioactivity was monitored in the eluate by a Packard Flow Scintillation Analyzer. Total radioactivity for estrone and estradiol were determined in each sample and percent conversion of estradiol to estrone was calculated according to the following formula:
as §1

| SMILES | inhibition at 1 µM [1] | inhibition at 1 µM [2] |
| --- | --- | --- |
| Cc1cnc(NC(=O)CC[C@@H]2c3c[nH]nc3[C@@]3(C)CCC4c5ccccc5CCC4C23)s1 (stereo partly drawn) [Compound 52, 3-((6aS,10S)-6a-methyl-4b,5,6,6a,8,10,10a,10b,11,12-decehydro-7,8-diaza-pentaleno[2,1-1]phenanthren-10-yl}-N-(5-methylthiazol-2-yl)propanamide] | 94% | 0% |
| Cc1cnc(NC(=O)CC[C@@H]2c3c[nH]nc3[C@@]3(C)CCC4c5cc(Br)c(O)c(Br)c5CCC4C23)s1 (stereo partly drawn) [Compound 54, 3-((6aS,10S)-1,3-dibromo-2-hydroxy-6a-methyl-4b,5,6,6a,8,10,10a,10b,11,12-decehydro-7,8-diaza-pentaleno[2,1-1]phenanthren-10-yl}-N-(5-methylthiazol-2-yl)propanamide] | 90% | 13% |
| Cc1cnc(NC(=O)CC[C@@H]2c3c[nH]nc3[C@@]3(C)CCC4c5ccc(O)c([N+](=O)[O-])c5CCC4C23)s1 (stereo partly drawn) [Compound 56, 3-((6aS,10S)-2-Hydroxy-6a-methyl-4-nitro-4b,5,6,6a,8,10,10a,10b,11,12-decehydro-7,8-diaza-pentaleno[2,1-1]phenanthren-10-yl}-N-(5-methylthiazol-2-yl)propanamide] | 97% | 39% |
| Cc1cnc(NC(=O)CC[C@@H]2C(=C\O)/C(=N\O)[C@@]3(C)CCC4c5ccc(O)cc5CCC4C23)s1 (stereo partly drawn) [Compound 69, 3-{(13S,15S)-3-Hydroxy-17-[(Z)-hydroxyimino]-16-[1-hydroxy-meth-(E)-ylidene]-13-methyl-7,8,9,11,12,13,14,15,16,17-decahydro-6H-cyclopenta[a]phenanthren-15-yl}-N-(5-methylthiazol-2-yl)propanamide] | 98% | 2% |
| Cc1cnc(NC(=O)CC[C@@H]2C(=C\O)/C(=N\O)[C@@]3(C)CCC4c5ccc(O)c(Br)c5CCC4C23)s1 (stereo partly drawn) [Compound 71, 3-{(13S,15S)-4-Bromo-3-hydroxy-17-[(Z)-hydroxyimino]-16-[1-hydroxy-meth-(E)-ylidene]-13-methyl-7,8,9,11,12,13,14,15,16,17-decahydro-6H-cyclopenta[a]phenanthren-15-yl}-N-(5-methylthiazol-2-yl)propanamide] | 82% | 7% |
| COc1cc2c(cc1/C(C)=N/O)C1CC[C@]3(C)/C(=N/O)C[C@@H](CCC(=O)Nc4ncc(C)s4)C3C1CC2 (stereo partly shown) [Compound 72] | 77% | 3% |
| CO/N=C1\C[C@@H](CCC(=O)Nc2ncc(C)s2)C2C3CCc4cc(OC)ccc4C3CC[C@]12C (stereo partly drawn) [Compound 74, 3-{(13S,15R)-3-Methoxy-17-[(E)-methoxyimino]-13-methyl-7,8,9,11,12,13,14,15,16,17-decahydro-6H-cyclopenta[a]phenanthren-15-yl}-N-(5-methylthiazol-2-yl)propanamide] | 59% | 2% |
| CO/N=C1\C[C@@H](CCC(=O)Nc2ncc(C)s2)C2C3CCc4cc(OC)c(I)cc4C3CC[C@]12C (stereo partly drawn) [Compound 84, 3-{(13S,15R)-2-iodo-3-methoxy-17-[(E)-methoxyimino]-13-methyl-7,8,9,11,12,13,14,15,16,17-decahydro-6H-cyclopenta[a]phenanthren-15-yl}-N-(5-methylthiazol-2-yl)propanamide] | 62% | 1% |
| CO/N=C1\C[C@@H](CCC(=O)Nc2ncc(C)s2)C2C3CCc4cc(O)c(CN5CCOCC5)cc4C3CC[C@]12C (stereo partly drawn) [Compound 98, 3-{(13S,15R)-3-Hydroxy-17-[(E)-methoxyimino]-13-methyl-2-morpholin-4-ylmethyl-7,8,9,11,12,13,14,15,16,17-decahydro-6H-cyclopenta[a]phenanthren-15-yl}-N-(5-methylthiazol-2-yl)propanamide] | 57% | 0% |
| CO/N=C1\C[C@@H](CCC(=O)Nc2ncc(C)s2)C2C3CCc4cc(OC(C)=O)ccc4C3CC[C@]12C (stereo partly drawn) [Compound 100, Acetic acid (13S,15R)-17[(E)-methoxyimino]-13-methyl-15-[2-(5-methylthiazol-2-ylcarbamoyl)-ethyl]-7,8,9,11,12,13,14,15,16,17-decahydro-6H-cyclopenta[a]phenanthren-3-yl ester] | 84% | 1% |
| CO/N=C1\C[C@@H](CCC(=O)Nc2ncc(C)s2)C2C3CCc4cc(OC(=O)CN(C)C)ccc4C3CC[C@]12C (stereo partly drawn) [Compound 101, Dimethylamino-acetic acid (13S,15R)-17[(E)-methoxyimino]-13-methyl-15-[2-(5-methylthiazol-2-ylcarbamoyl)-ethyl]-7,8,9,11,12,13,14,15,16,17-decahydro-6H-cyclopenta[a]phenanthren-3-yl ester] | 88% | 3% |
| CCO/N=C1\C[C@@H](CCC(=O)Nc2ncc(C)s2)C2C3CCc4cc(O)ccc4C3CC[C@]12C (stereo partly drawn) [Compound 105, 3-{(13S,15R)-17-[(E)-Ethoxyimino]-3-hydroxy-13-methyl-7,8,9,11,12,13,14,15,16,17-decahydro-6H-cyclopenta[a]phenanthren-15-yl}-N-(5-methylthiazol-2-yl)propanamide] | 94% | 3% |
| C=CCO/N=C1\C[C@@H](CCC(=O)Nc2ncc(C)s2)C2C3CCc4cc(O)ccc4C3CC[C@]12C (stereo partly drawn) [Compound 107, 3-{(13S,15R)-17-[(E)-Allyloxyimino]-3-hydroxyl-13-methyl-7,8,9,11,12,13,14,15,16,17-decahydro-6H-cyclopenta[a]phenanthren-15-yl}-N-(5-methylthiazol-2-yl)propanamide] | 70% | 3% |
| C=CCO/N=C1\C[C@@H](CCC(=O)Nc2ncc(C)s2)C2C3CCc4cc(O)c([N+](=O)[O-])cc4C3CC[C@]12C (stereo partly drawn) [Compound 108, 3-{(13S,15R)-17-[(E)-Allyloxyimino]-3-hydroxyl-13-methyl-2-nitro-7,8,9,11,12,13,14,15,16,17-decahydro-6H-cyclopenta[a]phenanthren-15-yl}-N-(5-methylthiazol-2-yl)propanamide] | 80% | 1% |

Reference: US20170081357A1, “[…] ACTIVE 17-NITROGEN SUBSTITUTED ESTRATREINTHIAZOLE DERIVATIVES AS INHIBITORS OF 17.BETA-HYDROXYSTEROID DEHYDROGENASE” (FORENDO PHARMA LTD, priority 2013, published 2017)
